From patent publication US12558397B2, “Composition for prevention, amelioration, or treatment of urination-related diseases comprising cephalotocin” (KOREA RESEARCH INSTITUTE OF CHEMICAL TECHNOLOGY, priority 2020, dated 2026)

Legend:
Type in all cases: cell-based
[1] = target: T1, human vasopressin V2 receptor (Homo sapiens, UniProt P30518); test: Vasopressin receptor V2R activity/inhibitory effect, intracellular cAMP by HTRF; settings: CHO cells overexpressing human V2 receptor, FIGS. 3 and 4
T1 construct: expressed in transfected cells; host or cells: CHO (Chinese hamster ovary) cells
Procedure: Recombinant human vasopressin V2 receptor-overexpressing Chinese hamster ovary cells (cell line name: CHO) were cultured and treated with cephalotocin at different concentrations at room temperature for 30 minutes, and intracellular cAMP concentration accumulated for 30 minutes by cephalotocin-vasopressin V2 receptor binding was measured by the HTRF fluorescence imaging method. […]. To confirm the receptor inhibitory effect, the response to increasing the intracellular cAMP concentration that vasopressin 0.03 nM may cause for 30 minutes was taken as 100% standard, and the relative magnitude of the response induced when treated with vasopressin 0.03 nM and cephalotocin simultaneously was measured.
(§1) . The results confirming the regulatory effect on the receptors OXTR, V1AR, V1BR and V2R by Octopus vulgaris octopressin are shown in FIGS. 3 and 4, respectively.

[2] = target: T2, human vasopressin V1A receptor (Homo sapiens, UniProt P37288); test: Vasopressin receptor V1AR activity/inhibitory effect, intracellular calcium by calcium dye fluorescence imaging; settings: CHO cells overexpressing human V1A receptor, FIGS. 3 and 4
T2 construct: expressed in transfected cells; host or cells: CHO (Chinese hamster ovary) cells
T2 sequence (P37288 whole entry): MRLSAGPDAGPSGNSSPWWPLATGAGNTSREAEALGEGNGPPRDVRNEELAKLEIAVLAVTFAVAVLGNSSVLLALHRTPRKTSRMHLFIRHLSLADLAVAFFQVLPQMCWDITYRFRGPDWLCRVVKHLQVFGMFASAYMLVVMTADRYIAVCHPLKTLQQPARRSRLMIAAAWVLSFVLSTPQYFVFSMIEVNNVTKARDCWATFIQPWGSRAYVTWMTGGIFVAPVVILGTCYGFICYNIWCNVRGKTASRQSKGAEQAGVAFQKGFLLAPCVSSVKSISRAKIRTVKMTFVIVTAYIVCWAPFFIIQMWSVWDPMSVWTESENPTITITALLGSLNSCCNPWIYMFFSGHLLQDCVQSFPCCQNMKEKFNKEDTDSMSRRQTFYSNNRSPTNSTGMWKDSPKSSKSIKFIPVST
Procedure: (§2) Recombinant human vasopressin V1A receptor-overexpressing Chinese hamster ovary cells (cell line name: CHO) were cultured and treated with cephalotocin at different concentrations at room temperature, and the change in intracellular calcium concentration induced by cephalotocin-vasopressin V1A receptor binding was measured by the calcium dye fluorescence imaging method.
To confirm the receptor inhibitory effect, the response to increasing the intracellular calcium concentration that vasopressin 10 nM may cause was taken as 100% standard, and the relative magnitude of the response induced when treated with vasopressin 10 nM and cephalotocin simultaneously was measured.
as §1

human oxytocin receptor = target: T3, human oxytocin receptor (Homo sapiens, UniProt P30559); test: Oxytocin receptor OXTR activity/inhibitory effect, intracellular calcium by calcium dye fluorescence imaging; settings: ECSV304 cells overexpressing human oxytocin receptor, FIGS. 3 and 4
T3 construct: expressed in transfected cells; host or cells: recombinant human epithelial cells, cell line ECSV304 as printed
T3 sequence (P30559 1-389): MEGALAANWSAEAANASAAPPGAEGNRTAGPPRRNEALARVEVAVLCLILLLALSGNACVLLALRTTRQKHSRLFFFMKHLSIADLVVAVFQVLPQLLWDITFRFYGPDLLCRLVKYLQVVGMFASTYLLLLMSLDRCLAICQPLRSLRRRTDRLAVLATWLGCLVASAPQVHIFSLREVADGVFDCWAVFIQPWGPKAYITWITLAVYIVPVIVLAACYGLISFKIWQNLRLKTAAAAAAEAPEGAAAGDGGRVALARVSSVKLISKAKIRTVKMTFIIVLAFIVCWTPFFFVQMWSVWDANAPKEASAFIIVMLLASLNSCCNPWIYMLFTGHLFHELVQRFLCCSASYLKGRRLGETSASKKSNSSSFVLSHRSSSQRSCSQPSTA
Procedure: Recombinant human epithelial cells overexpressing human oxytocin receptor (Name of cell line: ECSV304) were cultured and treated with cephalotocin at different concentrations at room temperature. The change in intracellular calcium concentration induced by cephalotocin-oxytocin receptor binding was measured by calcium dye fluorescence imaging.
To confirm the receptor activation effect, the response to increasing the intracellular calcium concentration that oxytocin 1 μM may cause was taken as 100%, and the relative magnitude of the response induced when treated with cephalotocin alone without oxytocin was measured
To confirm the receptor inhibitory effect, the response to increasing the intracellular calcium concentration that oxytocin 30 nM may cause was taken as 100% standard, and the relative magnitude of the response induced when treated with oxytocin 30 nM and cephalotocin simultaneously was measured.
as §1

[3] = target: T4, human vasopressin V1B receptor (Homo sapiens, UniProt P47901); test: Vasopressin receptor V1BR activity/inhibitory effect, intracellular calcium by calcium dye fluorescence imaging; settings: RBL cells overexpressing human V1B receptor, FIGS. 3 and 4
T4 construct: expressed in transfected cells; host or cells: RBL (basophilic leukemia) cells
T4 sequence (P47901 1-424): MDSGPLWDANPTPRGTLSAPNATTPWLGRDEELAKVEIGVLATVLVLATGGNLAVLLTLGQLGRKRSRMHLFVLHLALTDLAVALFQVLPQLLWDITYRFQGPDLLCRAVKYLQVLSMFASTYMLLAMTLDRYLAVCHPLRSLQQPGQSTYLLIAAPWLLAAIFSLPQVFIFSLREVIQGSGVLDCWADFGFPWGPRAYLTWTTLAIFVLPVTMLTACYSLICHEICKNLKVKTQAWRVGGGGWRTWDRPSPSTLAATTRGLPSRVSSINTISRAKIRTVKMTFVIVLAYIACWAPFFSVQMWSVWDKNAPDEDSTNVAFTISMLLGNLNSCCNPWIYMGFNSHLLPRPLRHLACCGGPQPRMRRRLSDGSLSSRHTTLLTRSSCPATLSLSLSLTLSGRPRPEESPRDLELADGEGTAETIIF
Procedure: as §2, with “V1B” for “V1A”, “[…] basophilic leukemia” for “Chinese hamster ovary cells”, “RBL) was” for “CHO) were”
The results confirming the regulatory effect on the receptors OXTR, V1AR, V1BR and V2R by Octopus vulgaris octopressin are shown in FIGS. 3 and 4, respectively.

octopressin
does not regulate: Regulation (activation/inhibition) of V2R [1] | Regulation (activation/inhibition) of V1AR [2] | Regulation (activation/inhibition) of OXTR (human oxytocin receptor) | Regulation (activation/inhibition) of V1BR [3]
